The source made the active and inactive calls. The rule behind the calls is not given here.
How the values were obtained:
[1] = molecular target: Neuronal acetylcholine receptor subunit alpha-7 (Rattus norvegicus) (UniProt Q05941); test: Agonistic activity against rat nicotinic acetylcholine receptor alpha-7 expressed in Xenopus oocytes; type: functional, cell-based; settings: Oocyte
[2] = species on record: Rattus norvegicus; test: Agonistic activity against Rat muscle Nicotinic Receptor; type: functional
[3] = test system: Neuronal acetylcholine receptor alpha4/beta2 (Rattus norvegicus); test: Agonistic activity against rat Nicotinic acetylcholine receptor alpha4-beta2 expressed in Xenopus oocytes; settings: Oocyte
[4] = test system: Neuronal acetylcholine receptor alpha3/beta4 (Rattus norvegicus); test: Agonistic activity against Alpha3 beta-4 Nicotinic receptor from Xenopus oocytes expressing recombinant nAChR from rat; settings: Oocyte
[5] = molecular target: Neuronal acetylcholine receptor subunit alpha-7 (Rattus norvegicus) (UniProt Q05941); test: Agonistic activity against rat nicotinic acetylcholine receptor alpha-7 expressed in Xenopus oocytes; NA=inactive; type: functional, cell-based; settings: Oocyte
[6] = molecular target: T1, Neuronal acetylcholine receptor; alpha3/beta4 (Homo sapiens) (UniProt P30926+P32297); test: Agonistic activity against Alpha3 beta4 Nicotinic receptor from Xenopus oocytes expressing recombinant nAChR from rat; NA=inactive; type: functional, cell-based; settings: Oocyte
[7] = molecular target: T1, Neuronal acetylcholine receptor; alpha3/beta4 (Homo sapiens); test: Agonistic activity against rat Alpha3 beta-4 Nicotinic Receptor expressed in Xenopus oocytes; NA=inactive; type: functional, cell-based; settings: Oocyte
[8] = molecular target: Neuronal acetylcholine receptor; alpha4/beta2 (Homo sapiens) (UniProt P17787+P43681); test: Agonistic activity against rat Nicotinic acetylcholine receptor alpha4-beta2 expressed in Xenopus oocytes; NA=inactive; type: functional, cell-based; settings: Oocyte
[9] = molecular target: T1, Neuronal acetylcholine receptor; alpha3/beta4 (Homo sapiens); test: Agonistic activity against rat Alpha3 beta-4 Nicotinic Receptor expressed in Xenopus oocytes; type: functional, cell-based; settings: Oocyte

Sequence of Neuronal acetylcholine receptor subunit alpha-7 (Rattus norvegicus) (Q05941 whole entry): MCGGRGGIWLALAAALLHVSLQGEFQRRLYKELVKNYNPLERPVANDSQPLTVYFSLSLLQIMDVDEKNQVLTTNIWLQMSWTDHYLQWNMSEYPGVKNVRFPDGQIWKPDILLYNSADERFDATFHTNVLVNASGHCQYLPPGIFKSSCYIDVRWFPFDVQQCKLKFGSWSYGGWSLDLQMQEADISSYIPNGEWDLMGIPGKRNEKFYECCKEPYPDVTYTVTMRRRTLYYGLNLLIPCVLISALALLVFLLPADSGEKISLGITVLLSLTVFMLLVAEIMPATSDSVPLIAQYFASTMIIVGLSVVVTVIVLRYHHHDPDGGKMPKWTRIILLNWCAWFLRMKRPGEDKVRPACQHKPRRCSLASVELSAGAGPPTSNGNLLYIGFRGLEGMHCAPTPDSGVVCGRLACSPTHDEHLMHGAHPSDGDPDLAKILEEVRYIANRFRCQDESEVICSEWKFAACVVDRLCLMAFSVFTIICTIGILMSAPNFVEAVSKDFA

SMILES	Activity [1] [µM]	Activity [2] [µM]	Activity [3] [µM]	Activity [5]	further results
c1cc(C2CC3CCC2N3)cnn1 (stereo not given)	40	0.16	0.02		Activity [4]: 0.16 µM
CCOC(=O)N1C2CC[C@@H]1CC2c1ccnnc1 (stereo not given in full)		>100	> 100	inactive	Activity [6]: inactive
CCOC(=O)N1C2CC[C@@H]1CC2c1cc(Cl)nnc1Cl (stereo not given in full)				inactive	Activity [7]: inactive; Activity [8]: inactive
CN1CCC[C@H]1c1cccnc1.O=C(O)C(O)C(O)C(=O)O.O=C(O)C(O)C(O)C(=O)O	12.6	6.3			
CC(=O)OCC[N+](C)(C)C [ACETYLCHOLINE]	50	0.1			
Clc1ccc(C2CC3CCC2N3)cn1 (racemic) [EPIBATIDINE]	0.5	0.03			Activity [9]: 0.005 µM
FC(F)(F)c1cc(C2CC3CCC2N3)c(C(F)(F)F)nn1 (stereo not given)				inactive	Activity [6]: inactive; Activity [8]: inactive
CN1C2CC[C@@H]1CC2c1ccnnc1 (stereo not given in full)	25	0.2	0.013		Activity [4]: 0.32 µM
